Source: the NIST ThermoML archive (doi:10.1016/j.fluid.2004.12.013)
Numbers after ± are expanded uncertainties.

Assay: excess molar enthalpy (molar enthalpy of mixing); xn = mol fraction of the nth substance listed
Conditions: 298.15 K, 101.3 kPa, Liquid

CCCCCCCCC [nonane] + CCCCCO
Conditions	excess molar enthalpy [kJ/mol]
x2 = 0.0545	0.414 ± 0.017
x2 = 0.0997	0.516 ± 0.02
x2 = 0.1605	0.59 ± 0.023
x2 = 0.2245	0.648 ± 0.025
x2 = 0.2862	0.681 ± 0.026
x2 = 0.3535	0.694 ± 0.026
x2 = 0.4025	0.689 ± 0.026
x2 = 0.4455	0.687 ± 0.026
x2 = 0.4998	0.67 ± 0.026
x2 = 0.5489	0.637 ± 0.024
x2 = 0.6006	0.593 ± 0.023
x2 = 0.6527	0.541 ± 0.021
x2 = 0.7058	0.469 ± 0.019
x2 = 0.7524	0.41 ± 0.017
x2 = 0.7962	0.33 ± 0.014
x2 = 0.8478	0.257 ± 0.011
x2 = 0.8935	0.172 ± 0.008
x2 = 0.9382	0.086 ± 0.006

CCCCCCCCC [nonane] + COC(C)(C)C
Conditions	excess molar enthalpy [kJ/mol]
x2 = 0.0816	0.131 ± 0.007
x2 = 0.1472	0.225 ± 0.01
x2 = 0.1747	0.265 ± 0.012
x2 = 0.2383	0.345 ± 0.014
x2 = 0.2404	0.345 ± 0.014
x2 = 0.3312	0.428 ± 0.017
x2 = 0.3912	0.457 ± 0.018
x2 = 0.4867	0.486 ± 0.019
x2 = 0.6601	0.437 ± 0.018
x2 = 0.7157	0.392 ± 0.016
x2 = 0.7399	0.371 ± 0.015
x2 = 0.7773	0.337 ± 0.014
x2 = 0.8129	0.305 ± 0.013
x2 = 0.8723	0.231 ± 0.01
x2 = 0.895	0.2 ± 0.009
x2 = 0.9235	0.173 ± 0.008
x2 = 0.9285	0.141 ± 0.007
x2 = 0.9459	0.126 ± 0.007
x2 = 0.9573	0.104 ± 0.006
x2 = 0.9632	0.082 ± 0.006
